Assay results from ChEMBL document CHEMBL3526145, “Metabolism, excretion, and pharmacokinetics of ((3,3-difluoropyrrolidin-1-yl)((2S,4S)-4-(4-(pyrimidin-2-yl)piperazin-1-yl)pyrrolidin-2-yl)methanone, a dipeptidyl peptidase inhibitor, in rat, dog and human” (Drug Metab Dispos, 2012).

How the values were obtained:
[1] = Drug metabolism in bile of bile duct-cannulated female Sprague-Dawley rat assessed as PF-00734200 level at 5 mg/kg, po administered as single dose by LC-MS/MS method; format: ADME, organism-based; set-up: dose 5 mg/kg, route oral; conditions: in vivo
[2] = Drug excretion in Sprague-Dawley rat feces at 5 mg/kg, po administered as single dose; format: ADME, organism-based; set-up: dose 5 mg/kg, route oral; conditions: faeces, read-out: Drug excretion
[3] = Drug recovery in bile of bile duct-cannulated Sprague-Dawley rat at 5 mg/kg, po administered as single dose by LC-MS/MS method; format: ADME, organism-based; set-up: dose 5 mg/kg, route oral; conditions: read-out: Drug recovery
[4] = Drug recovery in Sprague-Dawley rat at 5 mg/kg, po administered as single dose; format: ADME, organism-based; set-up: dose 5 mg/kg, route oral; conditions: in vivo, read-out: Drug recovery
[5] = Drug recovery in beagle dog at 5 mg/kg, po administered as single dose; format: ADME, organism-based, Canis lupus familiaris; set-up: dose 5 mg/kg, route oral; conditions: in vivo, read-out: Drug recovery
[6] = Drug metabolism in bile of bile duct-cannulated male Sprague-Dawley rat assessed as PF-00734200 level at 5 mg/kg, po administered as single dose by LC-MS/MS method; format: ADME, organism-based; set-up: dose 5 mg/kg, route oral; conditions: in vivo
Homo sapiens [7] = assay: AUC (0 to 168 hrs) in human at […], po administered as single dose; format: ADME, organism-based, Plasma; set-up: time < 168 hr, route oral; conditions: in vivo
[8] = Drug recovery in human at […], po administered as single dose; format: ADME, organism-based; set-up: route oral; conditions: in vivo, read-out: Drug recovery
[9] = Drug excretion in human feces at […], po administered as single dose; format: ADME, organism-based; set-up: route oral; conditions: faeces, read-out: Drug excretion
Homo sapiens [10] = assay: Cmax in human at […], po administered as single dose; format: ADME, organism-based; set-up: route oral; conditions: in vivo
[11] = Drug excretion in Sprague-Dawley rat urine at 5 mg/kg, po administered as single dose; format: ADME, organism-based; set-up: dose 5 mg/kg, route oral; conditions: read-out: Drug excretion
Homo sapiens [12] = assay: AUC (0 to infinity) in human at […], po administered as single dose; format: ADME, organism-based, Plasma; set-up: time infinity, route oral; conditions: in vivo
[13] = Drug excretion in beagle dog feces at 5 mg/kg, po administered as single dose; format: ADME, organism-based, Canis lupus familiaris; set-up: dose 5 mg/kg, route oral; conditions: faeces, read-out: Drug excretion
[14] = Drug excretion in human urine at […], po administered as single dose; format: ADME, organism-based; set-up: route oral; conditions: read-out: Drug excretion
[15] = Drug excretion in beagle dog urine at 5 mg/kg, po administered as single dose; format: ADME, organism-based, Canis lupus familiaris; set-up: dose 5 mg/kg, route oral; conditions: read-out: Drug excretion
[16] = Retention time of the compound by HPLC method; format: physicochemical
[17] = Drug level in urine of beagle dog treated with [14C]PF-00734200 at 5 mg/kg, po administered as single dose by LC-MS/MS method; format: ADME, organism-based, Canis lupus familiaris; set-up: dose 5 mg/kg, route oral; conditions: in vivo
Plasma [18] = assay: Drug level in beagle dog plasma treated with [14C]PF-00734200 at 5 mg/kg, po administered as single dose by LC-MS/MS method; format: ADME, organism-based, Canis lupus familiaris; set-up: dose 5 mg/kg, route oral; conditions: in vivo
Canis familiaris = assay: Total drug level in beagle dog treated with [14C]PF-00734200 assessed as total radio activity at 5 mg/kg, po administered as single dose […]; format: ADME, organism-based, Canis lupus familiaris; set-up: dose 5 mg/kg, route oral; conditions: in vivo
[19] = Drug level in urine of Sprague-Dawley rat treated with [14C]PF-00734200 at 5 mg/kg, po administered as single dose by LC-MS/MS method; format: ADME, organism-based; set-up: dose 5 mg/kg, route oral; conditions: in vivo
Rattus norvegicus = assay: Total drug level in Sprague-Dawley rat treated with [14C]PF-00734200 assessed as total radio activity at 5 mg/kg, po administered as single dose […]; format: ADME, organism-based; set-up: dose 5 mg/kg, route oral; conditions: in vivo
[20] = Drug level in bile of bile duct-cannulated Sprague-Dawley rat treated with [14C]PF-00734200 at 5 mg/kg, po administered as single dose by LC-MS/MS method; format: ADME, organism-based; set-up: dose 5 mg/kg, route oral; conditions: in vivo
Plasma [21] = assay: Drug level in Sprague-Dawley rat plasma treated with [14C]PF-00734200 at 5 mg/kg, po administered as single dose by LC-MS/MS method; format: ADME, organism-based; set-up: dose 5 mg/kg, route oral; conditions: in vivo
[22] = Drug level in feces of human treated with [14C]PF-00734200 at […], po administered as single dose by LC-MS/MS method; format: ADME, organism-based; set-up: route oral; conditions: in vivo
[23] = Drug level in feces of beagle dog treated with [14C]PF-00734200 at 5 mg/kg, po administered as single dose by LC-MS/MS method; format: ADME, organism-based, Canis lupus familiaris; set-up: dose 5 mg/kg, route oral; conditions: in vivo
[24] = Drug level in feces of Sprague-Dawley rat treated with [14C]PF-00734200 at 5 mg/kg, po administered as single dose by LC-MS/MS method; format: ADME, organism-based; set-up: dose 5 mg/kg, route oral; conditions: in vivo
Cytochrome P450 2D6 = Cytochrome P450 2D6 (Homo sapiens, UniProt P10635); assay: Drug level assessed as human CYP2D6-mediated compound formation from PF-00734200 by LC-MS/MS method; format: ADME; conditions: recombinant enzyme
Cytochrome P450 2D6, sequence (P10635 whole entry): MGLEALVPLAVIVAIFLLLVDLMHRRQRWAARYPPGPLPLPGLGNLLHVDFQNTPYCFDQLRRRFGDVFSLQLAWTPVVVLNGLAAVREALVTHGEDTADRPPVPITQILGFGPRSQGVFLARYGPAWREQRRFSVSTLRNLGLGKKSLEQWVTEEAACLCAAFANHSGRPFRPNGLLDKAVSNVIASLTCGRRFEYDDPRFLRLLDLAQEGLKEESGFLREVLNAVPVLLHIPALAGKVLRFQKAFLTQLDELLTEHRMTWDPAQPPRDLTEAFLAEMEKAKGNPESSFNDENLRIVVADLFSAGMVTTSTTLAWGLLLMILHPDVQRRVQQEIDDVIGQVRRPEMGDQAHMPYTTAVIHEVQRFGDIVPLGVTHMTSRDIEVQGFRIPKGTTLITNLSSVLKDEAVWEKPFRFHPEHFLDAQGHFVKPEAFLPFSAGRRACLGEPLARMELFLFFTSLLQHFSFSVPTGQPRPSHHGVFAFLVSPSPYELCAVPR

Serum = assay: Drug level in human serum treated with [14C]PF-00734200 at […], po administered as single dose by LC-MS/MS method; format: ADME, organism-based; set-up: route oral; conditions: in vivo
[25] = Drug level in urine of human treated with [14C]PF-00734200 at […], po administered as single dose by LC-MS/MS method; format: ADME, organism-based; set-up: route oral; conditions: in vivo
Homo sapiens [26] = assay: Total drug level in human treated with [14C]PF-00734200 assessed as total radio activity at […], po administered as single dose […]; format: ADME, organism-based; set-up: route oral; conditions: in vivo
Cytochrome P450 3A4 = Cytochrome P450 3A4 (Homo sapiens, UniProt P08684); assay: Drug level assessed as human CYP3A4-mediated compound formation from PF-00734200 by LC-MS/MS method; format: ADME; conditions: recombinant enzyme
Cytochrome P450 3A4, sequence (P08684 whole entry): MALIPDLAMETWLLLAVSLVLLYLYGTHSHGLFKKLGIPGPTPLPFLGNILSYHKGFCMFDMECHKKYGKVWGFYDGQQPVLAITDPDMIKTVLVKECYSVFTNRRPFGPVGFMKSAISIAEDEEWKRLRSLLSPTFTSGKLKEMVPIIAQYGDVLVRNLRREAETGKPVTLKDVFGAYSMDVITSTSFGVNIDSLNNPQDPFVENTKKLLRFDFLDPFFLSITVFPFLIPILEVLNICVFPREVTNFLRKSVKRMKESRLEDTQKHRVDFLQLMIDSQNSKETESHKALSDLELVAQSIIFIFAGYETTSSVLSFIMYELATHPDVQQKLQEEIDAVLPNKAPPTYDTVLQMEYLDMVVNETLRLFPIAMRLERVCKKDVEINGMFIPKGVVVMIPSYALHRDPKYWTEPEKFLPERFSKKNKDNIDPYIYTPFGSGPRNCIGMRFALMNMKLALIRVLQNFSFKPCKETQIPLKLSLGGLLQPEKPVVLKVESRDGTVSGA

Structure (SMILES) | Retention_time [16] [min] | Drug uptake [17] [%] | Drug uptake (Plasma [18]) [%] | Drug uptake (Canis familiaris) [%] | Drug uptake [19] [%] | Drug uptake (Rattus norvegicus) [%] | Drug uptake (Plasma [21]) [%] | Drug uptake [22] [%] | Drug uptake [24] [%] | Drug uptake [25] [%] | Drug uptake (Homo sapiens [26]) [%] | further results
O=C([C@@H]1C[C@H](N2CCN([14c]3ncccn3)CC2)CN1)N1CCC(F)(F)C1 | – | – | – | – | – | – | – | – | – | – | – | Drug metabolism [1]: metabolite_not_detected; dose excreted [2]: 66%; dose excreted [3]: 62.1%; dose excreted [4]: 97.1%; dose excreted [5]: 92.2%; Drug metabolism [6]: metabolite_not_detected; AUC (Homo sapiens [7]): 2490 ng.Eq.hr/ml; dose excreted [8]: 87.2%; dose excreted [9]: 10.4%; Cmax (Homo sapiens [10]): 274 ng.Eq/ml; dose excreted [11]: 30.8%; AUC (Homo sapiens [12]): 2850 ng.Eq.hr/ml; dose excreted [13]: 16.8%; dose excreted [14]: 76.8%; dose excreted [15]: 66.7%
NC(=O)N1C[C@@H](N2CCN(c3ncc(O)cn3)CC2)C[C@H]1C(=O)N1CCC(F)(F)C1 | 26 | 0.6 | – | – | – | – | – | – | – | – | – | –
O=C(O)[C@H]1O[C@@H](Oc2cnc(N3CCN([C@@H]4CN[C@H](C(=O)N5CCC(F)(F)C5)C4)CC3)nc2)[C@H](O)[C@@H](O)[C@@H]1O | 14.3 | 1 | 0.4 | 1 | 2.9 | 2.9 | 4.7 | – | – | – | – | Drug uptake [20]: 50.4%
O=C([C@@H]1C[C@H](N2CCN(c3ncc(O)cn3)CC2)CN1)N1CCC(F)(F)C1 | 25.5 | 30.1 | 13.7 | 39.1 | 7.3 | 39.6 | 2.7 | 2.7 | 32.3 | 17.9 | 20.6 | Drug uptake [23]: 9%; Drug metabolism (Cytochrome P450 2D6): metabolite_detected; Drug uptake (Serum): 4%; Drug metabolism (Cytochrome P450 3A4): metabolite_detected
O=C(O)[C@H]1O[C@@H](OC(=O)N2C[C@@H](N3CCN(c4ncccn4)CC3)C[C@H]2C(=O)N2CCC(F)(F)C2)[C@H](O)[C@@H](O)[C@@H]1O | 28.2 | 1.6 | 1.5 | – | – | – | – | – | – | 6 | 6 | Drug uptake (Serum): 1.2%
N=C(N)N1CCN([C@H]2C[C@@H](C(=O)N3CCC(F)(F)C3)N(C=O)C2)CC1 | 20.1 | – | – | – | – | 0.1 | – | – | 0.1 | 0.1 | 0.1 | –
N=C(N)N1CCN([C@@H]2CN[C@H](C(=O)N3CCC(F)(F)C3)C2)CC1 | 3 | 1.2 | 0.8 | 5.8 | 3.1 | 20.9 | 2.6 | 3 | 17.8 | – | 3 | Drug uptake [23]: 4.6%; Drug uptake [20]: 7.3%
O=C(O)[C@@H]1C[C@H](N2CCN(c3ncccn3)CC2)CN1 | 5.6 | 2.5 | 1 | 2.5 | 3.2 | 5.5 | 8.4 | 1.2 | 2.3 | 1.1 | 2.3 | –
